Experimental data reported in patent US10766869B2, “Triazoles for the treatment of demyelinating dieases” (Vertex Pharmaceuticals Incorporated, priority 2015, dated 2020).

Test system: primary rat mixed cortical cells
Assay: In vitro myelination assay (MBP positive myelin strands, fold myelin pixels above background)
Format: cell-based
Settings: Rattus norvegicus, relative to baseline of no added compound, read-out: Fold myelin pixels above background; for fold induction at 1 µM: 1.0 μM compound; for fold induction at 10 µM: 10.0 μM compound
Method in brief: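 Compounds at 1.0 and 10.0 μM were incubated 14 days with dissociated P1 rat cortical cells, which were then fixed and immunostained for MBP. Myelination was scored as fold MBP myelin pixels per well over the no-compound baseline.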

| Structure (SMILES) | fold induction at 1 µM | fold induction at 10 µM |
| --- | --- | --- |
| Cc1cc(Nc2ncn(-c3cc(F)c(F)cc3F)n2)cc(N2CCN(C3COC3)CC2)c1 [Compound 413, N-[3-methyl-5-[4-(oxetan-3-yl)piperazin-1-yl]phenyl]-1-(2,4,5-trifluorophenyl)-1,2,4-triazol-3-amine] | ≤ 1 | 100 to 1000 |
| Cc1cc(Nc2ncn(-c3ccccc3C)n2)cc(N2CCN(C3COC3)CC2)c1 [Compound 414, N-[3-methyl-5-[4-(oxetan-3-yl)piperazin-1-yl]phenyl]-1-(o-tolyl)-1,2,4-triazol-3-amine] | 1 to 10 | 100 to 1000 |
| Cc1cc(Nc2ncn(-c3cc(F)cc(OC(C)C)c3)n2)cc(N2CCN(C3COC3)CC2)c1 [Compound 415, 1-(3-fluoro-5-isopropoxy-phenyl)-N-[3-methyl-5-[4-(oxetan-3-yl)piperazin-1-yl]phenyl]-1,2,4-triazol-3-amine] | 100 to 1000 | ≤ 1 |
| Cc1cc(Nc2ncn(-c3cc(F)cc(F)c3)n2)cc(C2(O)CCN(C3COC3)C2)c1 (stereo not shown) [Compound 416, 3-[3-[[1-(3,5-difluorophenyl)-1,2,4-triazol-3-yl]amino]-5-methyl-phenyl]-1-(oxetan-3-yl)pyrrolidin-3-ol] | 100 to 1000 | 10 to 100 |
| CCc1cc(Nc2ncn(-c3cc(F)ccc3F)n2)cc(N2CCN(C3COC3)CC2)c1 [Compound 417, 1-(2,5-difluorophenyl)-N-[3-ethyl-5-[4-(oxetan-3-yl)piperazin-1-yl]phenyl]-1,2,4-triazol-3-amine] | 100 to 1000 | 1000 to 10000 |
| Cc1cc(Nc2ncn(-c3ccnc(C)n3)n2)cc(N2CCN(C3COC3)CC2)c1 [Compound 418, N-[3-methyl-5-[4-(oxetan-3-yl)piperazin-1-yl]phenyl]-1-(2-methylpyrimidin-4-yl)-1,2,4-triazol-3-amine] | ≤ 1 | 10 to 100 |
| Cc1cc(Nc2ncn(-c3ccccc3)n2)cc(N2CC(C)N(C)CC2C)c1 (stereo not shown) [Compound 419, N-[3-methyl-5-(2,4,5-trimethylpiperazin-1-yl)phenyl]-1-phenyl-1,2,4-triazol-3-amine] | 10 to 100 | ≤ 1 |
| Cc1cc(Nc2ncn(-c3cncc(C)n3)n2)cc(N2CCN(C3CC3)CC2)c1 [Compound 420, N-[3-(4-cyclopropylpiperazin-1-yl)-5-methyl-phenyl]-1-(6-methylpyrazin-2-yl)-1,2,4-triazol-3-amine] | 1 to 10 | 1 to 10 |
| Cc1cc(Nc2ncn(-c3cc(F)cc(F)c3)n2)cc(N2CCN(CC(F)(F)F)CC2)c1 [Compound 421, 1-(3,5-difluorophenyl)-N-[3-methyl-5-[4-(2,2,2-trifluoroethyl)piperazin-1-yl]phenyl]-1,2,4-triazol-3-amine] | 100 to 1000 | 100 to 1000 |
| COC(=O)N1CCN(c2cc(C)cc(Nc3ncn(-c4cc(F)cc(F)c4)n3)c2)CC1 [Compound 422, methyl 4-[3-[[1-(3,5-difluorophenyl)-1,2,4-triazol-3-yl]amino]-5-methyl-phenyl]piperazine-1-carboxylate] | ≤ 1 | 100 to 1000 |
| Cc1cc(Nc2ncn(-c3ccccc3)n2)cc(N2C[C@@H](C)N(C)[C@@H](C)C2)c1 [Compound 423, N-[3-methyl-5-[(3R,5S)-3,4,5-trimethylpiperazin-1-yl]phenyl]-1-phenyl-1,2,4-triazol-3-amine] | 100 to 1000 | ≤ 1 |
| Cc1cc(Nc2ncn(-c3cc(C)cc(F)c3)n2)cc(N2CCN(C)CC2)c1 [Compound 424, 1-(3-fluoro-5-methyl-phenyl)-N-[3-methyl-5-(4-methylpiperazin-1-yl)phenyl]-1,2,4-triazol-3-amine] | 100 to 1000 | ≤ 1 |
| Cc1cc(N2CCN(C3COC3)CC2)cc(Nc2ncn(-c3cc(F)cc(F)c3)n2)c1C [Compound 425, 1-(3,5-difluorophenyl)-N-[2,3-dimethyl-5-[4-(oxetan-3-yl)piperazin-1-yl]phenyl]-1,2,4-triazol-3-amine] | 1 to 10 | 100 to 1000 |
| Fc1cc(F)cc(-n2cnc(Nc3cc(Cl)cc(N4CCOCC4)c3)n2)c1 [Compound 426, N-(3-chloro-5-morpholino-phenyl)-1-(3,5-difluorophenyl)-1,2,4-triazol-3-amine] | 1000 to 10000 | 1000 to 10000 |
| Cc1cc(Nc2ncn(-c3cncc(F)c3)n2)cc(N2CCOCC2)c1 [Compound 427, 1-(5-fluoro-3-pyridyl)-N-(3-methyl-5-morpholino-phenyl)-1,2,4-triazol-3-amine] | 100 to 1000 | 100 to 1000 |
| Cc1cc(Nc2ncn(-c3ccccc3Cl)n2)cc(N2CCN(C)CC2)c1 [Compound 428, 1-(2-chlorophenyl)-N-[3-methyl-5-(4-methylpiperazin-1-yl)phenyl]-1,2,4-triazol-3-amine] | 1 to 10 | 10 to 100 |

| Structure (SMILES) | fold induction at 1 µM | fold induction at 10 µM |
| --- | --- | --- |
| Cc1cc(Nc2ncn(-c3cc(F)cc(F)c3)n2)cc(C2CCCNC2)c1 (stereo not shown) [Compound 429, 1-(3,5-difluorophenyl)-N-[3-methyl-5-(3-piperidyl)phenyl]-1,2,4-triazol-3-amine] | 1000 to 10000 | ≤ 1 |
| Cc1cc(Nc2ncn(-c3ccccc3)n2)cc(N2CCC(F)CC2)n1 [Compound 430, 2-(4-fluoro-1-piperidyl)-6-methyl-N-(1-phenyl-1,2,4-triazol-3-yl)pyridin-4-amine] | 100 to 1000 | ≤ 1 |
| Cc1cc(Nc2ncn(-c3ccccc3)n2)cc(N2CCN(CC3(C)COC3)CC2)c1 [Compound 431, N-[3-methyl-5-[4-[(3-methyloxetan-3-yl)methyl]piperazin-1-yl]phenyl]-1-phenyl-1,2,4-triazol-3-amine] | 1 to 10 | ≤ 1 |
| CCc1cc(Nc2ncn(-c3cccc(OC)c3)n2)cc(N2CCN(C3COC3)CC2)c1 [Compound 432, N-[3-ethyl-5-[4-(oxetan-3-yl)piperazin-1-yl]phenyl]-1-(3-methoxyphenyl)-1,2,4-triazol-3-amine] | 100 to 1000 | 1 to 10 |
| Cc1cc(Nc2ncn(-c3cc(F)cc(F)c3)n2)cc(OC2CCN(C3COC3)CC2)c1 [Compound 433, 1-(3,5-difluorophenyl)-N-[3-methyl-5-[[1-(oxetan-3-yl)-4-piperidyl]oxy]phenyl]-1,2,4-triazol-3-amine] | 100 to 1000 | 100 to 1000 |
| Cc1cc(Nc2ncn(-c3ccccc3)n2)cc(N2CCN(C3CCOC3)CC2)c1 (stereo not shown) [Compound 434, N-[3-methyl-5-(4-tetrahydrofuran-3-ylpiperazin-1-yl)phenyl]-1-phenyl-1,2,4-triazol-3-amine] | 1000 to 10000 | 1000 to 10000 |
| Fc1cc(Nc2ncn(-c3cccc(F)c3)n2)cc(N2CCCC2)c1 [Compound 435, 1-(3-fluorophenyl)-N-(3-fluoro-5-pyrrolidin-1-yl-phenyl)-1,2,4-triazol-3-amine] | 100 to 1000 | 100 to 1000 |
| Cc1cc(Nc2ncn(-c3ccccc3)n2)cc(N2CCN(C3(C)COC3)CC2)c1 [Compound 436, N-[3-methyl-5-[4-(3-methyloxetan-3-yl)piperazin-1-yl]phenyl]-1-phenyl-1,2,4-triazol-3-amine] | 1000 to 10000 | 100 to 1000 |
| Cc1cc(Nc2ncn(-c3cc(F)ccc3F)n2)cc(N2CCN(C3COC3)CC2)c1 [Compound 437, 1-(2,5-difluorophenyl)-N-[3-methyl-5-[4-(oxetan-3-yl)piperazin-1-yl]phenyl]-1,2,4-triazol-3-amine] | 10 to 100 | 10 to 100 |
| Cc1cc(Nc2ncn(-c3cc(F)cc(F)c3)n2)cc(C2CCNCC2O)c1 (stereo not shown) [Compound 438, 4-[3-[[1-(3,5-difluorophenyl)-1,2,4-triazol-3-yl]amino]-5-methyl-phenyl]piperidin-3-ol] | 10 to 100 | ≤ 1 |
| CSc1cccc(-n2cnc(Nc3cc(C)cc(N4CCN(C5COC5)CC4)c3)n2)c1 [Compound 439, N-[3-methyl-5-[4-(oxetan-3-yl)piperazin-1-yl]phenyl]-1-(3-methylsulfanylphenyl)-1,2,4-triazol-3-amine] | 1 to 10 | 1 to 10 |
| Fc1cc(Nc2ncn(-c3ccc(F)c(F)c3)n2)cc(N2CCOCC2)c1 [Compound 440, 1-(3,4-difluorophenyl)-N-(3-fluoro-5-morpholino-phenyl)-1,2,4-triazol-3-amine] | 10 to 100 | 10 to 100 |
| Fc1cc(Nc2ncn(-c3ccc(C(F)(F)F)cc3)n2)cc(N2CCCC2)c1 [Compound 441, N-(3-fluoro-5-pyrrolidin-1-yl-phenyl)-1-[4-(trifluoromethyl)phenyl]-1,2,4-triazol-3-amine] | 1 to 10 | ≤ 1 |
| Cc1cc(Nc2ncn(-c3cc(F)cc(F)c3)n2)cc(C2CCCN(C3CC(C(=O)O)C3)C2)c1 (stereo not shown) [Compound 442, 3-[3-[3-[[1-(3,5-difluorophenyl)-1,2,4-triazol-3-yl]amino]-5-methyl-phenyl]-1-piperidyl]cyclobutanecarboxylic acid] | 10 to 100 | 10 to 100 |
| CC(=O)N1CCC(c2cc(C)cc(Nc3ncn(-c4ccccc4)n3)c2)C1 (stereo not shown) [Compound 443, 1-[3-[3-methyl-5-[(1-phenyl-1,2,4-triazol-3-yl)amino]phenyl]pyrrolidin-1-yl]ethanone] | 1000 to 10000 | ≤ 1 |
| Cc1cc(Nc2ncn(-c3cc(F)cc(F)c3)n2)cc(N2CCC3(COC3)C2)c1 [Compound 444, 1-(3,5-difluorophenyl)-N-[3-methyl-5-(2-oxa-7-azaspiro[3.4]octan-7-yl)phenyl]-1,2,4-triazol-3-amine] | ≤ 1 | 1 to 10 |
